Experimental data published in patent publication US8937086B2, “Compounds for the treatment of pathologies associated with aging and degenerative disorders” (University of Pittsburgh—Of the Commonwealth System of …, priority 2008, dated 2015).
“Also recorded” adds a separate entry of the source.

Key:
[1] = Body weight / tolerability in treated Ercc1-/Δ mice; type: in vivo, mouse; details: FIG. 11A-B; weight versus time
Description: FIG. 11A-B. Weights as a function of age of (A) male and (B) female Ercc1^−/Δ mice either treated with XJB-5-131 or vehicle (sunflower seed oil) according to the protocol shown in FIG. 7.
(§1) To assess the effectiveness of XJB-5-131 in inhibiting degeneration and/or signs of aging and age-related degenerative diseases, the compound was administered, over a 18-21 week period, to progeroid Ercc1^−/Δ mice, at a dose of 2 mg/kg in sunflower seed oil carrier (to promote solubility) administered intraperitoneally three times per week (FIG. 7). Sunflower seed oil was administered to twin Ercc1^−/Δ mice according to the same schedule as a control. The treated and control mice were monitored twice a week for weight and symptom/sign development.
(§2) To assess the impact of XJB-5-131 at a cellular level, a number of experiments were carried out using mouse embryonic fibroblasts (“MEF”) cells harvested from Ercc1^−/− mouse embryos.

Ercc1^−/− primary MEF = assay: γH2AX immunostaining of oxidatively stressed primary MEF; type: cell-based, mouse; details: 20% oxygen
Description: FIG. 13A-B. γH2AX immunostaining of Ercc1^−/− primary MEF grown at 20% oxygen to induce oxidative stress. Phosphorylated H2AX (γH2AX is a marker of cellular senescence and DNA damage. The MEF cells were either treated with XJB-5-131 (A) or E71-58 (B), fewer cells stained positively for γH2AX.
as §2
Next, the abilities of these two compounds, as well as XJB-5-131 and JP4-039, each at a concentration of 1 μM, were tested for their ability to prevent cellular senescence in cell cultures prepared, and oxidatively stressed, as in the preceding paragraph. Treated as well as untreated cells were, after 48 hours, immunostained for γ-H2AX, a marker of DNA double-strand breaks as well as cellular senescence.

[2] = system: MEF cells harvested from Ercc1^−/− mouse embryos; assay: SA-β galactosidase staining (cellular senescence) in MEF; type: cell-based; details: 500 nM in media, ambient oxygen, 48 hours; vs media only
Description: FIG. 12. SA-β galactosidase (a marker of cellular senescence) staining in mouse embryonic fibroblast (“MEF”) cells prepared from Ercc1^−/− mice, where the MEF cells were either treated with XJB-5-131 ([…]) or media alone continuously for 48 hours prior to fixing and staining the cells.
as §2

[3] = system: Ercc1^−/cond; K14-Cre mice; assay: UV-induced photoaging / sunburn of skin, topical cream; type: in vivo, mouse
Description: FIG. 10A-D. (A) Effects of (photo)aging in Ercc1^−/Δ mice either treated with XJB-5-131 (80 μg emulsified in a topical cream) or cream only according to the protocol shown in FIG. 7. The duration of treatment of mice in this figure was daily for five days post-UV irradiation. (B) Compounds as disclosed herein protect skin from photoaging by improving keratin production. Skin of Ercc1^−/cond; K14-Cre mice (missing ERCC1-XPF expression only in the skin) were treated with 20 J/m2 (half of the minimal erythemal dose) five times per week for 10 weeks to induce photoaging of the skin. Immediately after UV exposure, XJB-5-131 was applied (80 μg in 50 μL of cream) using a cotton applicator. Twenty-four hours after the last treatment, mice were euthanized and skin harvested for histopathologic examination. Skin sections were immunostained for keratin (red), DNA to reveal nuclei (blue) and actin (green). (C) Compounds as disclosed herein protect skin from inflammation in response to ultraviolet radiation. Skin of Ercc 1^−/cond; K14-Cre mice (missing ERCC1-XPF expression only in the skin) were treated with 500 J/m2 (12.5× the minimal erythemal dose) to induce erythema. Immediately after UV exposure, XJB-5-131 was applied (80 μg in 50 μL of cream) using a cotton applicator. Twenty-four hours after treatment, mice were euthanized and skin harvested for histopathologic examination. Skin sections were immunostained for keratin (red), DNA to reveal nuclei (blue) and actin (green). The thickness of the epidermal layer (indicated by the white bracket) is less in mice treated with XJB-5-131 than in mice treated with cream alone. (D) Compounds as disclosed herein reduce epidermal atrophy. Old (>24 months) normal mice were shaved and their skin treated with JP4-039 (450 μg in 50 μL of cream) or vehicle (cream) only five times per week for 10 weeks. Twenty-four hours after the last treatment, mice were euthanized and skin harvested for histopathologic examination. Skin sections were stained for DNA to reveal nuclei (blue) and actin (green).
As a measure of the effect of XJB-5-131 on photoaging or sun-induced skin changes, treated and control Ercc1^−/cond. K 14-Cre mice, which are missing ERCC1 only in the skin, were shaved, treated with a depilatory, then irradiated with UV-B light to induce sunburn (500 J/m2, the […] erythemal dose). Subsequently, the mice were treated with XJB-5-131 (80 μg) emulsified in a cream daily for five days.

[4] = system: primary MEF from Ercc1^−/− mouse embryos; assay: p16 immunofluorescence (irreversible cellular senescence) in MEF; type: cell-based; details: 1 μM, 48 hours, 20% oxygen; vs untreated cells
Description: FIG. 17. Levels of p16, a marker of irreversible cellular senescence, in MEF cells prepared from Ercc1^−/− mice, where the MEF cells were either treated with JP4-039 (10 μM dissolved in media) or media alone for 48 hours prior to fixing and immunostaining of cells.
To test the protective activity of JP4-039, cultures of primary MEF were prepared from Ercc1^−/− mouse embryos and grown under 20% oxygen (ambient air), which creates oxidative stress in these cells that are hypersensitive to the reactive oxygen species. The cells were then either treated with a concentration of 1 μM of XJB-5-131, JP4-039, JED-E71-37 or JED-E71-58, or left untreated, and then after 48 hours the level of p16, a marker of irreversible cellular senescence, was measured by immunofluorescence staining. […] Furthermore, in vivo, JP4-039 reversed epidermal atrophy, by increasing proliferation of keratinocytes (FIG. 10D). Thus JP4-039 was efficacious in vitro and in vivo for reducing/reversing age-related degenerative changes.

R6/2 mice = assay: Rotarod motor co-ordination in Huntington's disease model; type: in vivo, mouse; details: 2 mg/kg i.p. three times per week from 5 weeks of age; at 6 and 7 weeks of age; vs untreated mutant animals
Description: FIG. 19. XJB-5-131 preserved motor function in a mouse model of Huntington's disease. Five R6/2 mice, which model Huntington's disease, were treated three times per week with 2 mg/kg XJB-5-131 beginning at 5 weeks of life according to the scheme in FIG. 7. Motor function was assessed weekly by measuring the time animals were able to remain balanced on a rotarod, according to standard methods.
Huntington's disease is a fatal autosomal dominant neurodegenerative disease. The prevalence of Huntington's disease is four to seven in 100 000 and it typically develops in mid-life. The symptoms involve psychiatric, motor and cognitive disturbances, and weight loss. […] Mutant huntingtin forms insoluble aggregates that accumulate in the cytoplasm and nucleus of cells, disrupting neuron function. R6/2 mice express exon 1 of the human huntingtin gene, containing 150 CAG repeats. Consequently, the mice develop neurological symptoms that resemble many of those seen in Huntington's disease, including deficits of motor co-ordination, altered locomotor activity, impaired cognitive performance and seizures. Symptoms begin by week 3-4 and are progressive. […] Motor co-ordination was measured using a rotarod, after the mice were conditioned to the apparatus.

Ercc1^−/Δ mice = assay: Healthspan of progeroid Ercc1-/Δ mice treated with compound vs sibling given vehicle; type: in vivo, mouse
Text: FIG. 7. Experimental system for determining the impact of a therapeutic compound on the healthspan of Ercc1^−/Δ mice with accelerated aging. Transgenic mice or mutant animals were born from heterozygous crossings. Only litters with two Ercc1^−/Δ mice were enrolled in the study so that siblings could be used to assess the effect of a therapeutic compound, XJB-5-131 vs. vehicle in a pair-wise comparison. Treatments were initiated before the mice became symptomatic. The age at onset of progeroid symptoms were measured biweekly by an investigator blinded to the treatment of the mice.
as §1

Solubility (statement) = type: physicochemical
Text: Compounds as set forth herein may be administered in a suitable pharmaceutical carrier (e.g. sterile water, normal saline, phosphate buffered saline, etc.). Not by way of limitation, inhibitors may be administered as a solution, as a suspension, in solid form, in a sustained release formulation, in a topical cream formulation, etc. In particular non-limiting examples, an inhibitor may be incorporated into a microcapsule, nanoparticle or liposome.

[5] = system: MEF cells prepared from Ercc1^−/− mice; assay: Apoptosis in MEF cells; type: cell-based, mouse; details: 500 nM in media, 48 hours; vs media alone
Description: FIG. 14. Apoptosis in MEF cells prepared from Ercc1^−/− mice, where the MEF cells were either treated with XJB-5-131 (500 nM dissolved in media) or media alone continuously for 48 hours prior to fixing and staining the cells.
as §2

[6] = acute or chronic photoaging, 80 μg in 50 μL of cream

Structure (SMILES)	weight loss as a result of treatment [1]	γ-H2AX immunostaining (prevention of cellular senescence) (Ercc1^−/− primary MEF; 1 μM, 48 hours, vs untreated)	γH2AX foci / cells staining positively for γH2AX (Ercc1^−/− primary MEF; FIG. 13, concentration not stated)	amount of SA-β galactosidase staining [2]	thickness of the epidermal layer after UV ([3]; 500 J/m2, 80 μg in 50 μL of cream, 24 h, vs cream alone)	skin appearance after UV-B sunburn ([3]; 500 J/m2 UV-B, 80 μg in cream daily for five days, vs cream only)	inflammation of skin after UV [3, 6]	keratin in skin sections (immunofluorescence) [3, 6]	level of p16 [4]	motor co-ordination (time on rotarod) (R6/2 mice)	overall aging score (relative age at onset of progeroid symptoms vs sibling on oil) (Ercc1^−/Δ mice; 2 mg/kg i.p. in sunflower seed oil, three times per week, 18-21 weeks)	onset of progeroid symptoms and aging pathologies (Ercc1^−/Δ mice; 2 mg/kg i.p. three times per week)	symptoms of accelerated aging marked with asterisk (dystonia, ataxia, muscle wasting, decreased spontaneous activity or lethargy), age at onset (Ercc1^−/Δ mice; FIG. 8, vs vehicle only)	neurodegeneration and muscle wasting in twin mice (Ercc1^−/Δ mice; FIG. 9A, three times per week from 5 weeks of age, vs sibling on vehicle)	general appearance of twin mice (Ercc1^−/Δ mice; FIG. 9A, vs sibling on vehicle)	glycosaminoglycan in intervertebral discs, more relative to control mice (Ercc1^−/Δ mice; FIG. 9B, vs sunflower seed oil)	neurodegeneration in brain/cerebellum (GFAP immunostaining) (Ercc1^−/Δ mice; FIG. 9C, vs siblings on vehicle only)	insulin-producing β-islet cells in pancreas (Ercc1^−/Δ mice; FIG. 9D, H&E sections)	solubility (Solubility (statement))	amount of apoptosis [5]
CC1(C)CCCC(C)(C)N1[O] [TEMPO, 2,2,6,6-tetramethylpiperidine-N-oxyl, reference compound]	cause weight loss																			
CC(C)C[C@@H](/C=C/[C@H](Cc1ccccc1)C(=O)N1CCC[C@H]1C(=O)N[C@H](C(=O)N[C@@H](CCCNC(=O)OCc1ccccc1)C(=O)NC1CC(C)(C)N([O])C(C)(C)C1)C(C)C)NC(=O)OC(C)(C)C [XJB-5-131]	did not cause weight loss	less effective	reduce; also recorded: fewer	notably less	less	much more smooth and healthy	reduced	improved	less effective	significantly better	significantly improved	delayed the onset	significantly delayed	reduced and less	improved	approximately 30%	significantly reduced; also recorded: Decreased	preserved; also recorded: Preservation	sparingly soluble	did not reduce
